Measurements published in patent US8178658B2 (Dow AgroSciences, LLC, priority 2008, dated 2012).

Tests used:
[1] = test system: beet armyworm (BAW; Spodoptera exigua: Lepidoptera); assay: 96-well microtiter plate-based high throughput (HTS) diet bioassay on beet armyworm (BAW HTS); format: in vivo; details: BAW eggs, 12 μg test compound per well, mortality at 6 d post-treatment, mortality class
In short: (§1)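 Percent larval mortality after six days was the endpoint. Higher-throughput plates used eggs, 12 μg compound per well and 29° C darkness; trays used second instar larvae, a 50 μg/cm^2 dose and 25° C with 14:10 light cycle.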

[2] = test system: beet armyworm (BAW; Spodoptera exigua: Lepidoptera); assay: 128-well diet tray assay on beet armyworm (BAW 50); format: in vivo; details: 128-well diet tray assay, second instar BAW larvae, mortality class; for BAW 50 ug/cm2: 50 μg/cm^2 of test compound on diet
In short: as §1

[3] = 96-well microtiter plate HTS diet assay

Row | Structure (SMILES) | BAW HTS ([1]; 96-well HTS diet bioassay) | BAW HTS [1, 3] | BAW 50 ug/cm2 [2] | pest or weed control at 12 µg/well, 12 µg/well ([1]; Spodoptera exigua, 144 h, 96-well HTS diet bioassay, read-out: BAW HTS) [%] | pest or weed control at 50 µg/cm2, 50 µg/cm2 ([2]; Spodoptera exigua, 144 h, 50 μg/cm2 of test compound on diet, read-out: BAW 50 ug/cm2) [%]
1 | CO[C@@H]1[C@@H](OC)[C@H](C)O[C@@H](O/N=C/c2ccc(-c3ncn(-c4ccc(C(F)(F)F)cc4)n3)cc2)[C@@H]1OC [Compound 80] | A (the compound was tested and at least 50 percent mortality was observed) | A (the compound was tested and at least 50 percent mortality was observed) | A (the compound was tested and at least 50 percent mortality was observed) | – | –
2 | CCCCc1ccc(-n2cnc(-c3ccc(C=NOC4OC(C)C(OC)C(OC)C4OC)cc3)n2)cc1 (stereo not shown) [Compound 81] | A (the compound was tested and at least 50 percent mortality was observed) | A (the compound was tested and at least 50 percent mortality was observed) | A (the compound was tested and at least 50 percent mortality was observed) | – | –
3 | COC1C(C)OC(ON=Cc2ccc(-c3ncn(-c4ccc(OC(F)(F)F)cc4)n3)cc2)C(OC)C1OC (stereo not shown) [Compound 82] | B (either (1) the compound was tested and less than 50 percent mortality was observed or (2) the compound was not tested) | B (either (1) the compound was tested and less than 50 percent mortality was observed or (2) the compound was not tested) | A (the compound was tested and at least 50 percent mortality was observed) | – | –
4 | COC1C(C)OC(ON=Cc2ccc(-c3ncn(-c4ccc(C(C)C)cc4)n3)cc2)C(OC)C1OC (stereo not shown) [Compound 83] | B (either (1) the compound was tested and less than 50 percent mortality was observed or (2) the compound was not tested) | B (either (1) the compound was tested and less than 50 percent mortality was observed or (2) the compound was not tested) | A (the compound was tested and at least 50 percent mortality was observed) | – | –
5 | COC1C(C)OC(ON=Cc2ccc(-c3ncn(-c4ccc(Cl)cc4)n3)cc2)C(OC)C1OC (stereo not shown) [Compound 84] | B (either (1) the compound was tested and less than 50 percent mortality was observed or (2) the compound was not tested) | B (either (1) the compound was tested and less than 50 percent mortality was observed or (2) the compound was not tested) | A (the compound was tested and at least 50 percent mortality was observed) | – | –
6 | COc1ccc(-n2cnc(-c3ccc(C=NOC4OC(C)C(OC)C(OC)C4OC)cc3)n2)cc1 (stereo not shown) [Compound 85] | B (either (1) the compound was tested and less than 50 percent mortality was observed or (2) the compound was not tested) | B (either (1) the compound was tested and less than 50 percent mortality was observed or (2) the compound was not tested) | A (the compound was tested and at least 50 percent mortality was observed) | – | –
7 | COC1C(C)OC(ON=Cc2ccc(-c3ncn(-c4ccc(C(C)(C)C)cc4)n3)cc2)C(OC)C1OC (stereo not shown) [Compound 86] | B (either (1) the compound was tested and less than 50 percent mortality was observed or (2) the compound was not tested) | B (either (1) the compound was tested and less than 50 percent mortality was observed or (2) the compound was not tested) | A (the compound was tested and at least 50 percent mortality was observed) | – | –
8 | COC1C(C)OC(ON=Cc2ccc(-c3ncn(-c4ccc(SC(F)(F)F)cc4)n3)cc2)C(OC)C1OC (stereo not shown) [Compound 87] | B (either (1) the compound was tested and less than 50 percent mortality was observed or (2) the compound was not tested) | B (either (1) the compound was tested and less than 50 percent mortality was observed or (2) the compound was not tested) | A (the compound was tested and at least 50 percent mortality was observed) | – | –
9 | COC1C(C)OC(ON=Cc2ccc(-c3ncn(-c4ccc(OC(F)(F)C(F)F)cc4)n3)cc2)C(OC)C1OC (stereo not shown) [Compound 88] | B (either (1) the compound was tested and less than 50 percent mortality was observed or (2) the compound was not tested) | B (either (1) the compound was tested and less than 50 percent mortality was observed or (2) the compound was not tested) | A (the compound was tested and at least 50 percent mortality was observed) | – | –
10 | COC1C(C)OC(ON=Cc2ccc(-c3ncn(-c4ccc(OC(F)(F)C(F)(F)F)cc4)n3)cc2)C(OC)C1OC (stereo not shown) [Compound 89] | B (either (1) the compound was tested and less than 50 percent mortality was observed or (2) the compound was not tested) | B (either (1) the compound was tested and less than 50 percent mortality was observed or (2) the compound was not tested) | A (the compound was tested and at least 50 percent mortality was observed) | – | –
11 | COC1C(C)OC(ON=Cc2ccc(-c3ncn(-c4ccc(SC)cc4)n3)cc2)C(OC)C1OC (stereo not shown) [Compound 90] | B (either (1) the compound was tested and less than 50 percent mortality was observed or (2) the compound was not tested) | B (either (1) the compound was tested and less than 50 percent mortality was observed or (2) the compound was not tested) | A (the compound was tested and at least 50 percent mortality was observed) | – | –
12 | COC1C(C)OC(ON=Cc2ccc(-c3ncn(-c4cccc(OC(F)(F)F)c4)n3)cc2)C(OC)C1OC (stereo not shown) [Compound 91] | B (either (1) the compound was tested and less than 50 percent mortality was observed or (2) the compound was not tested) | B (either (1) the compound was tested and less than 50 percent mortality was observed or (2) the compound was not tested) | A (the compound was tested and at least 50 percent mortality was observed) | – | –
13 | CCOC1C(C)OC(ON=Cc2ccc(-c3ncn(-c4ccc(OC(F)(F)C(F)(F)F)cc4)n3)cc2)C(OCC)C1OCC (stereo not shown) [Compound 92] | B (either (1) the compound was tested and less than 50 percent mortality was observed or (2) the compound was not tested) | B (either (1) the compound was tested and less than 50 percent mortality was observed or (2) the compound was not tested) | A (the compound was tested and at least 50 percent mortality was observed) | – | –
14 | CCOC1C(OC)C(C)OC(ON=Cc2ccc(-c3ncn(-c4ccc(OC(F)(F)C(F)(F)F)cc4)n3)cc2)C1OC (stereo not shown) [Compound 93] | A (the compound was tested and at least 50 percent mortality was observed) | A (the compound was tested and at least 50 percent mortality was observed) | A (the compound was tested and at least 50 percent mortality was observed) | – | –
15 | CO[C@@H]1[C@@H](OC)[C@H](C)O[C@@H](O/N=C/c2ccc(-c3ncn(-c4ccc(OC(F)(F)C(F)C(F)(F)F)cn4)n3)cc2)[C@@H]1OC (stereo partly drawn) [Compound 94, 4-{1-[5-(1,1,2,3,3,3-hexafluoropropoxy)-pyridinyl]-1H-[1,2,4]triazol-3-yl}-benzaldehyde O-((2S,3R,4R,5S,6S)-3,4,5-trimethoxy-6-methyl-tetrahydropyran-2-yl)-oxime] | – | B (either (1) the compound was tested and less than 50 percent mortality was observed or (2) the compound was not tested) | A (the compound was tested and at least 50 percent mortality was observed) | < 50 | > 50
16 | COC1C(C)OC(ON=Cc2ccc(-c3nc(-c4ccc(C(F)(F)F)cc4)n[nH]3)cc2)C(OC)C1OC (stereo not shown) [Compound 95] | B (either (1) the compound was tested and less than 50 percent mortality was observed or (2) the compound was not tested) | B (either (1) the compound was tested and less than 50 percent mortality was observed or (2) the compound was not tested) | A (the compound was tested and at least 50 percent mortality was observed) | – | –
17 | COC1C(C)OC(ON=Cc2ccc(-c3nc(-c4ccc(Cl)cc4)n[nH]3)cc2)C(OC)C1OC (stereo not shown) [Compound 96] | B (either (1) the compound was tested and less than 50 percent mortality was observed or (2) the compound was not tested) | B (either (1) the compound was tested and less than 50 percent mortality was observed or (2) the compound was not tested) | A (the compound was tested and at least 50 percent mortality was observed) | – | –
18 | COC1C(C)OC(ON=Cc2ccc(-c3nc(-c4ccc(C(C)(C)C)cc4)n[nH]3)cc2)C(OC)C1OC (stereo not shown) [Compound 97] | B (either (1) the compound was tested and less than 50 percent mortality was observed or (2) the compound was not tested) | B (either (1) the compound was tested and less than 50 percent mortality was observed or (2) the compound was not tested) | A (the compound was tested and at least 50 percent mortality was observed) | – | –
19 | COC1C(C)OC(ON=Cc2ccc(-c3nn(-c4ccc(Cl)c(Cl)c4)c(=O)[nH]3)cc2)C(OC)C1OC (stereo not shown) [Compound 98] | B (either (1) the compound was tested and less than 50 percent mortality was observed or (2) the compound was not tested) | B (either (1) the compound was tested and less than 50 percent mortality was observed or (2) the compound was not tested) | A (the compound was tested and at least 50 percent mortality was observed) | – | –
20 | COC1C(C)OC(ON=Cc2ccc(-c3nn(-c4c(F)c(F)c(C(F)(F)F)c(F)c4F)c(=O)[nH]3)cc2)C(OC)C1OC (stereo not shown) [Compound 99] | B (either (1) the compound was tested and less than 50 percent mortality was observed or (2) the compound was not tested) | B (either (1) the compound was tested and less than 50 percent mortality was observed or (2) the compound was not tested) | A (the compound was tested and at least 50 percent mortality was observed) | – | –
